Results: patent publication US20050025841A1, “Therapeutic methods using herbal compositions” (priority 2001, published 2005)

How the values were obtained:
[1] = test system: polychromatic erythrocytes in the mouse bone marrow; conditions: CTX 30 mg/kg alone; 8000 cells
[2] = test system: breast cancer; conditions: women at high risk of breast cancer, versus placebo; cited from earlier work

Compound	Micronucleus Rate [1]	decrease in invasive cancer [2]	decrease in non-invasive breast cancer [2]
O=P1(N(CCCl)CCCl)NCCCO1 (stereo not drawn) [CTX, cyclophosphamide]	17.3 ± 1.1 %0		
CC/C(=C(\c1ccccc1)c1ccc(OCCN(C)C)cc1)c1ccccc1 [Tamoxifen]		49%	50%
